Test results reported in patent US12582719B2, “Chimeric compounds and methods of managing neurological disorders or conditions” (Emory University, priority 2019, dated 2026).
Entries after “also recorded” stand apart in the source; their conditions may differ.

Legend:
[1] = system: antidepressant-like behavioral effects; conditions: behaviorally inactive dose of ACY-738 co-administered with sub-effective dose of citalopram; cited from earlier work
histone H4 deacetylation = assay: In vitro HDACI activity test (western blot, acetylated histone H4); format: cell-based; conditions: 9 L rat glioma cell line; for histone H4 acetylation: 5 μM, western blot
Protocol: The HDACI activity chimeric compounds were tested by western blot using a specific antibody against acetylated histone H4, and 9 L rat glioma cell line. the inhibitory activity of HM3a-R was analyzed at different concentrations (1 μM or 5 μM) on histone H4 deacetylation, compared with established HDACi, entinostat, (pyridin-3-yl)methyl-4-(2-aminophenylcarbamoyl)benzylcarbamate, MS-275 (1 μM or 5 μM) as positive controls.

xylene-induced ear edema = assay: Xylene-induced mouse ear edema test; format: in vivo, mice; conditions: for anti-inflammation effect compared with the control group against xylene-induced ear edema: 10 mg/kg intraperitoneally, C57BL female mice, 2 h after xylene
Protocol: Randomly selected C57BL adult female mice (6 weeks, ˜20 g) were divided into three groups of five mice in per group. Chimeric compounds (HM3a-R, HM3a-S, FIG. 2A) were dissolved in 10% dimethyl sulfoxide and 90% vehicle mixture. Vehicle formulation is 45% (2-hydroxypropyl)-β-cyclodextrin solution. And then, the compounds or vehicle were injected into mice as does 10 mg/kg and injection volume 100 μL intraperitoneally. After 30 min, mice treated 30 μL of xylene on the anterior and posterior surfaces of the right ear lobe, the left ear was considered as control. Two hours later, mice were sacrificed by using CO2 gas and both ears were cut off by using a cork borer with a diameter of 7 mm and weighed and the percentage of ear edema was calculated based on the weight of another ear without xylene.

[2] = system: carrageenan-induced paw edema; assay: Carrageenan-induced paw edema model; conditions: in vivo
[3] = system: LPS-induced depressive behavior (immobility); assay: Tail suspension test (TST) with lipopolysaccharide-induced depressive behavior; format: in vivo, mice
Protocol: Randomly selected NIH Swiss adult male mice (7 weeks, ˜30 g) were divided into three groups of 5 mice in per group. LPS (Lipopolysaccharide) was administered as does 850 μg/kg in saline 100 μL intraperitoneally. After 1 h, chimeric compound (HM3a-R, FIG. 2A) or belinostat (Spectrum Pharmaceutical, Irvine, CA) was injected into mice as does 75 mg/kg in vehicle 100 μL intraperitoneally. Then the compounds were dissolved in 10% dimethyl sulfoxide and 90% vehicle mixture. Vehicle formulation is 45% (2-hydroxypropyl)-β-cyclodextrin solution. After 6 h and 24 h, tail suspension test was performed. Every tail-hanged mouse was video-recorded for 6 minutes. […] The tail suspension test (TST) was performed to assess antidepressant-like activity using lipopolysaccharide (LPS) which is an endotoxin that causes depressive behavior in mice. The antidepressant activities of HM3a-R and belinostat were compared with a control.

[4] = system: immobility in forced swim test; assay: Forced swimming test (FST); format: in vivo, mice; conditions: for improvement in forced-swim test (antidepressant-like activity): C57BL female mice, 6 h after injection, versus control
Protocol: The FST experiment was performed twice, the first experiment comparing the control group and the HM3a-R group, and the second experiment comparing the control group and the belinostat group. In the first FST, randomly selected C57BL adult female mice (6 weeks, 20 g) were divided into two groups of eight mice per group. And the second FST, randomly selected C57BL adult female mice (6 weeks, 20 g) were divided into two groups of five mice per group. Chimeric compounds, HM3a-R (FIG. 2A) was dissolved in 10% dimethyl sulfoxide and 90% vehicle mixture. Vehicle formulation is 45% (2-hydroxypropyl)-β-cyclodextrin solution. Then, HM3a-R or belinostat as dose 75 mg/kg or vehicle (for control) was injected into mice with 100 μL volume intraperitoneally. After 6 h, two 3-liter beakers were filled approximately with 2 L water at 25+/-0.5 degrees Celsius. Camcorder was placed, directly across from two beakers. Each pair of mice (i.e., one control mouse and one treated mouse) was placed into each beaker. Every trial was video recorded in this manner for 10 minutes. While the beakers were adjacent to each other, they were enclosed by cardboard boxes. The immobile times (between 2 and 8 minutes of 10-minute trial) for each pair of mice were counted by the person who was blinded to the identities of the control and treated mice pairs.

Cellular toxicity = format: cell-based
[5] = system: antidepressant-like activity in animal models; assay: In vivo screening in animal models (antidepressant-like activity); conditions: compared with PDX-101 (belinostat)
[6] = system: depressive symptoms among GBM patients; assay: Clinical trial of vorinostat in recurrent glioblastoma, depression assessed by IDS-SR; format: in vivo, human
Protocol: A clinical trial was performed to evaluate vorinostat for the treatment of recurrent glioblastomas (GBM). Among the pleiotropic effects of HDAC inhibitors is the ability to attenuate inflammation, an action seen at concentrations lower than those required to slow cancer cell growth. GBM is frequently associated with neuroinflammation, which is thought to have pro-tumorigenic effects. […] Such changes are associated with recruitment of macrophages along a hypoxia-mediated chemotactic gradient. Macrophages recruited to hypoxic sites exert tumor-promoting effects through the expression of genes with mitogenic, angiogenic, and migration/invasion stimulating properties. Abrogating inflammatory changes associated with GBM might reduce or eliminate access to these tumor-promoting effects. Another intriguing effect of HDACis as anticancer agents might be their mood-enhancing, potentially anti-depressant, properties. In mice, decreased histone acetylation in key mood-relevant genes was found following chronic social defeat stress, a mouse model of depression. […]
During the clinical trial, levels of depression were assessed using the Inventory of Depressive Symptomatology-Self Report (IDS-SR) to determine whether vorinostat alters the severity of depressive symptoms among GBM patients. […]

[7] = 75 mg/kg intraperitoneally, LPS 850 μg/kg, NIH Swiss male mice

## O=C(NO)c1cnc(NC2(c3ccccc3)CC2)nc1 [ACY-738]
[1]
  effects comparable to a higher dose of citalopram administered alone: ~40 fold

## COC(=O)[C@]1(c2ccc(Cl)c(Cl)c2)C[C@H]1CNCc1ccc(C(=O)NO)cc1 [HM3a-R, (1R,2R)-methyl-1-(3,4-dichlorophenyl)-2-(((4-(hydroxycarbamoyl)benzyl)amino)methyl) cyclopropane-1-carboxylate]
Histone H4 deacetylation
  histone H4 acetylation: increased histone H4 acetylation
xylene-induced ear edema
  anti-inflammation effect compared with the control group against xylene-induced ear edema: 48%
xylene-induced ear edema; FIG. 3
  effectiveness against ear inflammation, comparison of enantiomers: more effective than HM3a-S
[2]
  effectiveness against carrageenan-induced paw edema, comparison of enantiomers: more effective
[3]; [7]
  duration of immobility in TST at 6 h: significantly reduced duration of immobility; also recorded: reduction in immobility
[3]; 75 mg/kg intraperitoneally, LPS 850 μg/kg, NIH Swiss male mice, 24 h
  duration of immobility in TST at 24 h: as effective as belinostat; also recorded: reduction in immobility
[3]; P<0.01, n=5
  onset of antidepressant action in TST versus belinostat: faster onset of antidepressant action
[4]; 75 mg/kg intraperitoneally, 6 h, P<0.05
  duration of immobility in FST: significantly less duration of immobility
[4]; 75 mg/kg intraperitoneally
  improvement in forced-swim test (antidepressant-like activity): 23%
[4]; 23% vs. 12%
  antidepressant-like activity in FST relative to belinostat: almost two-fold
Cellular toxicity
  cellular toxicity: without cellular toxicity
[5]
  antidepressant-like activity and onset time in animal models: excellent antidepressant-like activity and fast onset time

## COC(=O)[C@@]1(c2ccc(Cl)c(Cl)c2)C[C@@H]1CNCc1ccc(C(=O)NO)cc1 [HM3a-S, (1S,2S)-methyl-1-(3,4-dichlorophenyl)-2-(((4-(hydroxycarbamoyl)benzyl)amino)methyl) cyclopropane-1-carboxylate]
xylene-induced ear edema
  anti-inflammation effect compared with the control group against xylene-induced ear edema: 23%

## Nc1ccccc1NC(=O)c1ccc(CNC(=O)OCc2cccnc2)cc1 [MS-275, (pyridin-3-yl)methyl-4-(2-aminophenylcarbamoyl)benzylcarbamate]
Histone H4 deacetylation; 1 μM and 5 μM
  inhibition of histone H4 deacetylation, comparison: higher inhibitions than HM3a-R
Histone H4 deacetylation
  histone H4 acetylation: increased histone H4 acetylation

## O=C(/C=C/c1cccc(S(=O)(=O)Nc2ccccc2)c1)NO [belinostat, reference compound]
[3]; [7]
  duration of immobility in TST at 6 h: didn't show any effect
[4]; 75 mg/kg intraperitoneally
  improvement in forced-swim test (antidepressant-like activity): 12%

## O=C(CCCCCCC(=O)Nc1ccccc1)NO [vorinostat]
[6]; 7 days of vorinostat treatment
  GBM patients with improved IDS-SR scores: 67%
[6]; most patients on treatment for more than 3 weeks
  side effect: fatigue
